From patent US12692238B2, “Substituted pyridazinone herbicides” (FMC CORPORATION, priority 2020, dated 2026)

Columns and labels:
Type in all cases: in vivo
[1] = test system: blackgrass (Alopecurus myosuroides); test: Test A preemergence, blackgrass; settings: 0 to 100 scale, 10 days
Procedure, shortened: (§1)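 Scores reflect visual injury versus untreated controls after 10 days in a greenhouse, on a scale from 0 (none) to 100 (complete control); pre- and postemergence sprays used loam/sand pots, postemergence at the one- to two-leaf stage.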

corn (Zea mays) = test: Test A preemergence, corn; settings: 0 to 100 scale, 10 days
Procedure, shortened: as §1

[2] = test system: foxtail, giant (giant foxtail, Setaria faberi); test: Test A preemergence, foxtail, giant; settings: Setaria faberi, pre-emergence, 240 h, 0 to 100 scale, 10 days, read-out: Plant response rating, Foxtail, Giant
Procedure, shortened: as §1

[3] = test system: goosegrass (Eleusine indica); test: Test A preemergence, goosegrass; settings: 0 to 100 scale, 10 days
Procedure, shortened: as §1

kochia (Bassia scoparia) = test: Test A preemergence, kochia; settings: Bassia scoparia, pre-emergence, 240 h, 0 to 100 scale, 10 days, read-out: Plant response rating, Kochia
Procedure, shortened: as §1

[4] = test system: oat, wild (wild oat, Avena fatua); test: Test A preemergence, oat, wild; settings: 0 to 100 scale, 10 days
Procedure, shortened: as §1

[5] = test system: palmer amaranth (pigweed, palmer, Amaranthus palmeri); test: Test A preemergence, palmer amaranth; settings: 0 to 100 scale, 10 days
Procedure, shortened: as §1

soybean (Glycine max) [6] = test: Test A preemergence, soybean; settings: 0 to 100 scale, 10 days
Procedure, shortened: as §1

[7] = test system: foxtail, giant (giant foxtail, Setaria faberi); test: Test A postemergence, foxtail, giant; settings: Setaria faberi, post-emergence, 240 h, 10 days, read-out: Plant response rating, Foxtail, Giant
Procedure, shortened: as §1

[8] = test system: goosegrass (Eleusine indica); test: Test A postemergence, goosegrass; settings: 10 days
Procedure, shortened: as §1

[9] = test system: oat, wild (wild oat, Avena fatua); test: Test A postemergence, oat, wild; settings: 10 days
Procedure, shortened: as §1

[10] = test system: palmer amaranth (pigweed, palmer, Amaranthus palmeri); test: Test A postemergence, palmer amaranth; settings: 10 days
Procedure, shortened: as §1

soybean (Glycine max) [11] = test: Test A postemergence, soybean; settings: 10 days
Procedure, shortened: as §1

[12] = test system: horseweed (Erigeron canadensis); test: Test A postemergence, horseweed; settings: 10 days
Procedure, shortened: as §1

[13] = test system: wheat (Triticum aestivum); test: Test A preemergence, wheat; settings: 125 g ai/ha, 0 to 100 scale, 10 days
[14] = 31 g ai/ha, postemergence, 0 to 100 scale (0 no effect, 100 complete control)
[15] = Postemergence, 125 g ai/ha, 0 to 100 scale

## COC(=O)OCOc1c(C)nn(C)c(=O)c1-c1c2cc(C)ccc2cc2ccc(F)cc12 [Compound 15, [[5-(2-fluoro-7-methyl-9-anthracenyl)-1,6-dihydro-1,3-dimethyl-6-oxo-4-pyridazinyl]oxy]methyl methyl carbonate]
[1]; 31 g ai/ha
  Plant response rating, Blackgrass: 30
[1]; 125 g ai/ha
  Plant response rating, Blackgrass: 10
Corn (Zea mays); 31 g ai/ha
  Plant response rating, Corn: 0
Corn (Zea mays); 125 g ai/ha
  Plant response rating, Corn: 30
[2]; 31 g ai/ha
  pest or weed control at 31 g/ha: 100%
[2]; 125 g ai/ha
  pest or weed control at 125 g/ha: 100%
[3]; 31 g ai/ha
  Plant response rating, Goosegrass: 50
[3]; 125 g ai/ha
  Plant response rating, Goosegrass: 90
Kochia (Bassia scoparia); 31 g ai/ha
  pest or weed control at 31 g/ha: 90%
Kochia (Bassia scoparia); 125 g ai/ha
  pest or weed control at 125 g/ha: 100%
[4]; 31 g ai/ha
  Plant response rating, Oat, Wild: 20
[4]; 125 g ai/ha
  Plant response rating, Oat, Wild: 20
[5]; 31 g ai/ha
  Plant response rating, Pigweed, Palmer: 100
[5]; 125 g ai/ha
  Plant response rating, Pigweed, Palmer: 100
Soybean (Glycine max) [6]; 31 g ai/ha
  Plant response rating, Soybean: 0
Soybean (Glycine max) [6]; 125 g ai/ha
  Plant response rating, Soybean: 10
[7]; [14]
  pest or weed control at 31 g/ha: 100%
[7]; [15]
  pest or weed control at 125 g/ha: 100%
[8]; [14]
  Plant response rating, Goosegrass: 30
[8]; [15]
  Plant response rating, Goosegrass: 60
[9]; [14]
  Plant response rating, Oat, Wild: 20
[9]; [15]
  Plant response rating, Oat, Wild: 40
[10]; [14]
  Plant response rating, Pigweed, Palmer: 100
[10]; [15]
  Plant response rating, Pigweed, Palmer: 100
Soybean (Glycine max) [11]; [14]
  Plant response rating, Soybean: 80
Soybean (Glycine max) [11]; [15]
  Plant response rating, Soybean: 90
[12]; [14]
  Plant response rating, Horseweed: 100
[12]; [15]
  Plant response rating, Horseweed: 100
[13]
  Plant response rating, Wheat: 0
